Measurements from patent publication US6737383B1, “Herbicidal oxadiazolidines” (priority 1999, dated 2004).

Assays:
surinam grass = test: Test B pre/postemergence surinam grass; format: in vivo, Brachiaria decumbens
Method in brief: (§1)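 Test chemicals in a non-phytotoxic solvent mixture with surfactant were sprayed preemergence onto planted seeds and postemergence onto plants 2 to 18 cm tall (1- to 4-leaf stage). After twelve to sixteen days in a greenhouse, injury was visually rated against untreated controls from 0 (no effect) to 10 (complete control).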

crabgrass = test: Test B pre/postemergence crabgrass; format: in vivo, Digitaria sanguinalis
Method in brief: as §1

morningglory = test: Test B pre/postemergence morningglory; format: in vivo, Ipomoea hederacea
Method in brief: as §1

purple nutsedge = test: Test B pre/postemergence purple nutsedge; format: in vivo, Cyperus rotundus
Method in brief: as §1

blackgrass = test: Test B pre/postemergence blackgrass; format: in vivo, Alopecurus myosuroides
Method in brief: as §1

cocklebur = test: Test B pre/postemergence cocklebur; format: in vivo, Xanthium strumarium
Method in brief: as §1

giant foxtail = test: Test B pre/postemergence giant foxtail; format: in vivo, Setaria faberii
Method in brief: as §1

wheat = test: Test B pre/postemergence wheat; format: in vivo, Triticum aestivum
Method in brief: as §1

wild oat = test: Test B pre/postemergence wild oat; format: in vivo, Avena fatua
Method in brief: as §1

rape = test: Test B pre/postemergence rape; format: in vivo, Brassica napus
Method in brief: as §1

velvetleaf = test: Test B pre/postemergence velvetleaf; format: in vivo, Abutilon theophrasti
Method in brief: as §1

soybean = test: Test B pre/postemergence soybean; format: in vivo, Glycine max
Method in brief: as §1

pigweed = test: Test B pre/postemergence pigweed; format: in vivo, Amaranthus retroflexus
Method in brief: as §1

corn = test: Test B pre/postemergence corn; format: in vivo, Zea mays
Method in brief: as §1

bedstraw = test: Test B pre/postemergence bedstraw; format: in vivo, Galium aparine
Method in brief: as §1

[1] = Preemergence, Rate 62 g/ha, scale of 0 to 10 where 0 is no effect and 10 is complete control
[2] = Preemergence, Rate 125 g/ha, 0 is no effect, 10 is complete control
[3] = Preemergence, Rate 250 g/ha, scale 0 to 10, 0 is no effect, 10 is complete control
[4] = Preemergence, Rate 500 g/ha, scale of 0 to 10 where 0 is no effect and 10 is complete control
[5] = Rate 62 g/ha, Postemergence, scale of 0 to 10 where 0 is no effect and 10 is complete control
[6] = Rate 125 g/ha, Postemergence, scale 0 to 10
[7] = Rate 500 g/ha, Postemergence, scale 0 to 10

CSc1ccc(N(C(=O)n2oc(=O)n(-c3ccccc3C)c2=O)C(C)C)cc1 [Compound 205]
B. signalgrass plant response rating (surinam grass; [1]): 0
B. signalgrass plant response rating (0 to 10 scale) (surinam grass; [2]): 0
B. signalgrass plant response rating (surinam grass; [3]): 0
Plant response rating, B. signalgrass (surinam grass; [4]): 0
B. signalgrass plant response rating (surinam grass; [5]): 0
B. signalgrass plant response rating (surinam grass; Rate 125 g/ha, Postemergence, scale 0 (no effect) to 10 (complete control)): 0
Plant response rating, B. signalgrass (surinam grass; Rate 250 g/ha, Postemergence, scale 0 to 10, 0 is no effect, 10 is complete control): 0
B. signalgrass plant response rating (surinam grass; Rate 500 g/ha, Postemergence, scale 0 to 10, 0 no effect, 10 complete control): 0
Crabgrass plant response rating (crabgrass; [1]): 0
Crabgrass plant response rating (0 to 10 scale) (crabgrass; [2]): 0
Crabgrass plant response rating (crabgrass; [3]): 1
Plant response rating, Crabgrass (crabgrass; [4]): 8
Crabgrass plant response rating (crabgrass; [5]): 0
Crabgrass plant response rating (crabgrass; [6]): 0
Plant response rating (0 to 10; 0 is no effect, 10 is complete control), Crabgrass (crabgrass; Rate 250 g/ha, Postemergence): 1
Crabgrass plant response rating (crabgrass; [7]): 1
Morningglory plant response rating (morningglory; [1]): 0
Morningglory plant response rating (0 to 10 scale) (morningglory; [2]): 0
Morningglory plant response rating (morningglory; [3]): 0
Plant response rating, Morningglory (morningglory; [4]): 0
Morningglory plant response rating (morningglory; [5]): 0
Morningglory plant response rating (morningglory; [6]): 0
Plant response rating (0 to 10; 0 is no effect, 10 is complete control), Morningglory (morningglory; Rate 250 g/ha, Postemergence): 1
Morningglory plant response rating (morningglory; [7]): 2
Nutsedge plant response rating (purple nutsedge; [3]): 0
Nutsedge plant response rating (purple nutsedge; [6]): 0
Nutsedge plant response rating (purple nutsedge; [7]): 0
Blackgrass plant response rating (blackgrass; [1]): 0
Blackgrass plant response rating (0 to 10 scale) (blackgrass; [2]): 0
Blackgrass plant response rating (blackgrass; [3]): 0
Plant response rating, Blackgrass (blackgrass; [4]): 0
Blackgrass plant response rating (blackgrass; [5]): 0
Blackgrass plant response rating (blackgrass; [6]): 0
Plant response rating (0 to 10; 0 is no effect, 10 is complete control), Blackgrass (blackgrass; Rate 250 g/ha, Postemergence): 0
Blackgrass plant response rating (blackgrass; [7]): 0
Cocklebur plant response rating (cocklebur; [1]): 0
Cocklebur plant response rating (0 to 10 scale) (cocklebur; [2]): 0
Cocklebur plant response rating (cocklebur; [3]): 0
Plant response rating, Cocklebur (cocklebur; [4]): 0
Cocklebur plant response rating (cocklebur; [5]): 0
Cocklebur plant response rating (cocklebur; [6]): 1
Plant response rating (0 to 10; 0 is no effect, 10 is complete control), Cocklebur (cocklebur; Rate 250 g/ha, Postemergence): 1
Cocklebur plant response rating (cocklebur; [7]): 2
Giant foxtail plant response rating (giant foxtail; [1]): 0
Giant foxtail plant response rating (0 to 10 scale) (giant foxtail; [2]): 0
Giant foxtail plant response rating (giant foxtail; [3]): 0
Plant response rating, Giant foxtail (giant foxtail; [4]): 3
Giant foxtail plant response rating (giant foxtail; [5]): 0
Giant foxtail plant response rating (giant foxtail; [6]): 0
Plant response rating (0 to 10; 0 is no effect, 10 is complete control), Giant foxtail (giant foxtail; Rate 250 g/ha, Postemergence): 0
Giant foxtail plant response rating (giant foxtail; [7]): 0
Wheat plant response rating (wheat; [1]): 0
Wheat plant response rating (wheat; [3]): 0
Plant response rating, Wheat (wheat; [4]): 0
Wheat plant response rating (wheat; [5]): 0
Wheat plant response rating (wheat; [6]): 0
Plant response rating (0 to 10; 0 is no effect, 10 is complete control), Wheat (wheat; Rate 250 g/ha, Postemergence): 0
Wild oats plant response rating (wild oat; [1]): 0
Wild oats plant response rating (wild oat; [3]): 0
Plant response rating, Wild oats (wild oat; [4]): 0
Wild oats plant response rating (wild oat; [5]): 0
Wild oats plant response rating (wild oat; [6]): 0
Plant response rating (0 to 10; 0 is no effect, 10 is complete control), Wild oats (wild oat; Rate 250 g/ha, Postemergence): 0
Rape plant response rating (rape; [1]): 0
Rape plant response rating (0 to 10 scale) (rape; [2]): 0
Rape plant response rating (rape; [3]): 0
Plant response rating, Rape (rape; [4]): 0
Rape plant response rating (rape; [5]): 0
Rape plant response rating (rape; [6]): 0
Plant response rating (0 to 10; 0 is no effect, 10 is complete control), Rape (rape; Rate 250 g/ha, Postemergence): 0
Rape plant response rating (rape; [7]): 0
Velvetleaf plant response rating (velvetleaf; [1]): 0
Velvetleaf plant response rating (velvetleaf; [3]): 0
Plant response rating, Velvetleaf (velvetleaf; [4]): 0
Velvetleaf plant response rating (velvetleaf; [5]): 0
Velvetleaf plant response rating (velvetleaf; [6]): 0
Plant response rating (0 to 10; 0 is no effect, 10 is complete control), Velvetleaf (velvetleaf; Rate 250 g/ha, Postemergence): 0
Soybean plant response rating (soybean; [1]): 0
Soybean plant response rating (0 to 10 scale) (soybean; [2]): 0
Soybean plant response rating (soybean; [3]): 0
Plant response rating, Soybean (soybean; [4]): 0
Soybean plant response rating (soybean; [5]): 0
Soybean plant response rating (soybean; [6]): 1
Plant response rating (0 to 10; 0 is no effect, 10 is complete control), Soybean (soybean; Rate 250 g/ha, Postemergence): 2
Soybean plant response rating (soybean; [7]): 2
Redroot pigweed plant response rating (pigweed; [1]): 0
Redroot pigweed plant response rating (0 to 10 scale) (pigweed; [2]): 0
Redroot pigweed plant response rating (pigweed; [3]): 0
Plant response rating, Redroot pigweed (pigweed; [4]): 0
Redroot pigweed plant response rating (pigweed; [5]): 0
Redroot pigweed plant response rating (pigweed; [6]): 0
Plant response rating (0 to 10; 0 is no effect, 10 is complete control), Redroot pigweed (pigweed; Rate 250 g/ha, Postemergence): 0
Redroot pigweed plant response rating (pigweed; [7]): 0
Corn plant response rating (corn; [1]): 0
Corn plant response rating (0 to 10 scale) (corn; [2]): 0
Corn plant response rating (corn; [3]): 0
Plant response rating, Corn (corn; [4]): 0
Corn plant response rating (corn; [5]): 0
Corn plant response rating (corn; [6]): 0
Plant response rating (0 to 10; 0 is no effect, 10 is complete control), Corn (corn; Rate 250 g/ha, Postemergence): 0
Corn plant response rating (corn; [7]): 0
Bedstraw plant response rating (bedstraw; [1]): 0
Bedstraw plant response rating (0 to 10 scale) (bedstraw; [2]): 0
Bedstraw plant response rating (bedstraw; [3]): 0
Plant response rating, Bedstraw (bedstraw; [4]): 0
Bedstraw plant response rating (bedstraw; [5]): 0
Bedstraw plant response rating (bedstraw; [6]): 0
Plant response rating (0 to 10; 0 is no effect, 10 is complete control), Bedstraw (bedstraw; Rate 250 g/ha, Postemergence): 0
Bedstraw plant response rating (bedstraw; [7]): 0
